From ChEMBL document CHEMBL1201862, “PubChem BioAssay data set” (2004)
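Five concentrations, 48 hours, 96-well plates. At the GI50, growth is halved.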 Active and inactive are the calls of the source. Cut-off read from the data, not from the text of the source: active = GI50 up to about 1.1 µM and inactive = higher.

How the values were obtained:
Assay in all cases: NCI tumour cell line growth inhibition, 48 h
CCRF-CEM = test system: CCRF-CEM
EKVX = test system: EKVX
HCC 2998 = test system: HCC 2998
HCT-15 = test system: HCT-15
HOP-62 = test system: HOP-62
IGROV-1 = test system: IGROV-1
LOX IMVI = test system: LOX IMVI
MCF7 = test system: MCF7
MDA-N = test system: MDA-N
MOLT-4 = test system: MOLT-4
NCI-H23 = test system: NCI-H23
PC-3 = test system: PC-3
RPMI-8226 = test system: RPMI-8226
RXF 393 = test system: RXF 393
SF-268 = test system: SF-268
SK-MEL-5 = test system: SK-MEL-5
SNB-19 = test system: SNB-19
SNB-75 = test system: SNB-75
SR = test system: SR
UO-31 = test system: UO-31

Row | Structure (SMILES) | GI50 (CCRF-CEM) | GI50 (EKVX) | GI50 (HCC 2998) | GI50 (HCT-15) | GI50 (HOP-62) | GI50 (IGROV-1) | GI50 (LOX IMVI) | GI50 (MCF7) | GI50 (MDA-N) | GI50 (MOLT-4) | GI50 (NCI-H23) | GI50 (PC-3) | GI50 (RPMI-8226) | GI50 (RXF 393) | GI50 (SF-268) | GI50 (SK-MEL-5) | GI50 (SNB-19) | GI50 (SNB-75) | GI50 (SR) | GI50 (UO-31)
1 | CC1=CC(=O)CC(C)(C)C1(O)/C=C/C(C)=C/C(=O)O (stereo not drawn) | > 100 µM (inactive) | > 100 µM (inactive) | > 100 µM (inactive) | > 100 µM | > 100 µM (inactive) | > 100 µM (inactive) | > 100 µM (inactive) | > 100 µM (inactive) | > 100 µM (inactive) | > 100 µM (inactive) | > 100 µM (inactive) | > 100 µM (inactive) | > 100 µM (inactive) | > 100 µM (inactive) | > 100 µM (inactive) | > 100 µM (inactive) | > 100 µM (inactive) | > 100 µM (inactive) | > 100 µM (inactive) | > 100 µM (inactive)
2 | O=c1[nH]nc(-c2ccccc2)n1/N=C/c1ccc([N+](=O)[O-])cc1 | > 100 µM (inactive) | > 80.4 µM (inactive) | > 45.4 µM (inactive) | > 100 µM | 11 µM (inactive) | > 58.7 µM (inactive) | 31.1 µM (inactive) | > 60.1 µM (inactive) | > 100 µM (inactive) | > 100 µM (inactive) | > 53.2 µM (inactive) | > 100 µM (inactive) | > 100 µM (inactive) | 8.43 µM (inactive) | 13 µM (inactive) | > 100 µM (inactive) | 7.78 µM (inactive) | 10.4 µM (inactive) | > 100 µM (inactive) | 11.2 µM (inactive)
3 | COCCOC1=CC(=O)c2c(O)ccc(O)c2C1=O | 4.3 µM (inactive) | 2.14 µM (inactive) | 2.17 µM (inactive) | 1.02 µM | 0.724 µM (active) | 1.72 µM (inactive) | 0.726 µM (active) | 0.275 µM (active) | 0.186 µM (active) | 2.43 µM (inactive) | 1.12 µM (active) | 2.34 µM (inactive) | 4.28 µM (inactive) | 2.19 µM (inactive) | 1.89 µM (inactive) | 0.163 µM (active) | 2.3 µM (inactive) | 2 µM (inactive) | 5.01 µM (inactive) | 2.17 µM (inactive)
4 | Cc1sc2nc3n(c(=O)c2c1C)N=C(c1ccc(Cl)cc1)CS3 | > 100 µM (inactive) | > 100 µM (inactive) | > 100 µM (inactive) | > 100 µM | 66.1 µM (inactive) | – | > 100 µM (inactive) | > 100 µM (inactive) | > 100 µM (inactive) | > 100 µM (inactive) | > 100 µM (inactive) | > 100 µM (inactive) | > 100 µM (inactive) | > 100 µM (inactive) | > 100 µM (inactive) | > 100 µM (inactive) | – | 48.2 µM (inactive) | > 100 µM (inactive) | > 100 µM (inactive)
5 | CC(C)NC(=O)OCc1c(COC(=O)NC(C)C)c(-c2cc[n+](COC(=O)C(C)C)cc2)n2c1CCC2 | 39.9 µM (inactive) | > 100 µM (inactive) | > 100 µM (inactive) | > 100 µM | > 68.4 µM (inactive) | 30.1 µM (inactive) | > 50.7 µM (inactive) | 64.4 µM (inactive) | > 100 µM (inactive) | > 46.9 µM (inactive) | > 90.4 µM (inactive) | > 59.6 µM (inactive) | > 100 µM (inactive) | 21 µM (inactive) | > 74.8 µM (inactive) | > 100 µM (inactive) | > 100 µM (inactive) | > 53.5 µM (inactive) | > 25.2 µM (inactive) | > 100 µM (inactive)
6 | NC(=S)NN=Cc1ccccc1OCc1cccc(COc2ccccc2C=NNC(N)=S)n1 | > 100 µM (inactive) | 10 µM (inactive) | > 100 µM (inactive) | > 61.2 µM | 6.56 µM (inactive) | 13.7 µM (inactive) | > 100 µM (inactive) | > 100 µM (inactive) | > 100 µM (inactive) | > 100 µM (inactive) | 29.8 µM (inactive) | > 57.7 µM (inactive) | > 100 µM (inactive) | 2.4 µM (inactive) | 5.46 µM (inactive) | > 100 µM (inactive) | 9.89 µM (inactive) | 1.78 µM (inactive) | > 100 µM (inactive) | 28.2 µM (inactive)
7 | CC(=O)O[C@H]1CC[C@@]2(C)C(=CC[C@@H]3[C@@H]2CC[C@]2(C)C(=N/O)/C(=C\c4ccccc4)C[C@@H]32)C1 | 17.7 µM (inactive) | 4.86 µM (inactive) | 11.9 µM (inactive) | 16.5 µM | 16.7 µM (inactive) | 44.2 µM (inactive) | 9.14 µM (inactive) | 13 µM (inactive) | 4.71 µM (inactive) | 3.08 µM (inactive) | 16.3 µM (inactive) | 5.96 µM (inactive) | 33.7 µM (inactive) | 9.48 µM (inactive) | 24.2 µM (inactive) | 2.08 µM (inactive) | > 55 µM (inactive) | 33.6 µM (inactive) | 3.27 µM (inactive) | 9.06 µM (inactive)
8 | O=S(=O)(Nc1nc2ccccc2nc1N1CCCCCC1)c1ccccc1 | 34.5 µM (inactive) | 24.5 µM (inactive) | 11.8 µM (inactive) | 17.2 µM | 23 µM (inactive) | 20.8 µM (inactive) | > 100 µM (inactive) | 28.6 µM (inactive) | > 100 µM (inactive) | 16.4 µM (inactive) | 19.1 µM (inactive) | 19.4 µM (inactive) | 48.2 µM (inactive) | 19.1 µM (inactive) | 37.7 µM (inactive) | 14.3 µM (inactive) | 28.2 µM (inactive) | 21 µM (inactive) | 25.3 µM (inactive) | 12.4 µM (inactive)
9 | O=C1NC(S(=O)(=O)O)=NNC12c1ccccc1-c1ccccc12 | > 10 µM (inactive) | > 10 µM (inactive) | > 10 µM (inactive) | > 10 µM | > 10 µM (inactive) | > 10 µM (inactive) | > 10 µM (inactive) | > 10 µM (inactive) | > 10 µM (inactive) | > 10 µM (inactive) | > 10 µM (inactive) | > 10 µM (inactive) | > 10 µM (inactive) | > 10 µM (inactive) | > 10 µM (inactive) | > 10 µM (inactive) | > 10 µM (inactive) | > 10 µM (inactive) | > 10 µM (inactive) | > 10 µM (inactive)
10 | O=C(O)CNCc1c2ccccc2nc2ccccc12 | 7.24 µM (inactive) | 38.4 µM (inactive) | 58.6 µM (inactive) | 34.4 µM | 43.9 µM (inactive) | 45.9 µM (inactive) | 28.3 µM (inactive) | 27.7 µM (inactive) | 32.4 µM (inactive) | 6.27 µM (inactive) | 35.6 µM (inactive) | 27.2 µM (inactive) | 8.43 µM (inactive) | 32.4 µM (inactive) | 32.7 µM (inactive) | 25.7 µM (inactive) | 74 µM (inactive) | 32.8 µM (inactive) | 7.33 µM (inactive) | 25.2 µM (inactive)
